ChEMBL document CHEMBL5360636, “Hyperelatolides A-D, Antineuroinflammatory Constituents with Unusual Carbon Skeletons from Hypericum elatoides” (J Nat Prod, 2023)
pIC50: −log10 of the molar value.

What was measured:
[1] = test system: BV-2; assay: Cytotoxicity against mouse BV-2 cells at 20 uM by MTT assay; assay type: toxicity, cell-based; settings: bv-2, 20 µM
[2] = test system: BV-2; assay: Antineuroinflammatory activity in LPS-induced mouse BV-2 cells assessed as inhibition of NO production by griess assay; assay type: functional, cell-based
[3] = test system: BV-2; assay: Antineuroinflammatory activity in LPS-induced mouse BV-2 cells assessed as reduction in cytoplasmic NF-kappaB protein expression by Western blot analysis; assay type: functional, cell-based; settings: dose 2.5-10 µM
[4] = test system: BV-2; assay: Antineuroinflammatory activity in LPS-induced mouse BV-2 cells assessed as reduction in nuclear NF-kappaB protein expression by Western blot analysis; assay type: functional, cell-based; settings: dose 2.5-10 µM
[5] = test system: BV-2; assay: Antineuroinflammatory activity in LPS-induced mouse BV-2 cells assessed as downregulation of COX-2 protein expression by Western blot analysis; assay type: functional, cell-based; settings: dose 2.5-10 µM
[6] = test system: BV-2; assay: Antineuroinflammatory activity in LPS-induced mouse BV-2 cells assessed as downregulation of iNOS protein expression by Western blot analysis; assay type: functional, cell-based; settings: dose 2.5-10 µM

| Compound | pIC50 [2] | Activity [1] | Activity [3] | Activity [4] | Activity [5] | Activity [6] |
| --- | --- | --- | --- | --- | --- | --- |
| O=c1c(O)c(-c2ccc(O)c(O)c2)oc2cc(O)cc(O)c12 [QUERCETIN] | 5.13 | – | – | – | – | – |
| CC(=O)C[C@@H]1CCC(C)(C)C/C1=C/[C@H]1CC(=O)O[C@H]1C(C)(C)OC(=O)c1ccccc1 | 4.83 | Non-Toxic | – | – | – | – |
| COc1ccc2c(c1)c(CC(=O)O)c(C)n2C(=O)c1ccc(Cl)cc1 [INDOMETHACIN] | 4.71 | – | – | – | – | – |
| CC(=O)C[C@@H]1CCC(C)(C)C/C1=C/C1=CC(C)(C)OC1=O | < 4.70 | Non-Toxic | – | – | – | – |

Now from value to molecule, other results behind:

| pIC50 [2] | Compound | Activity [1] | Activity [3] | Activity [4] | Activity [5] | Activity [6] |
| --- | --- | --- | --- | --- | --- | --- |
| 5.13 | CC(=O)C[C@@H]1CCC(C)(C)C/C1=C/[C@H]1CC(=O)OC(C)(C)[C@@H]1OC(=O)c1ccccc1 | Non-Toxic | – | – | – | – |
| 5.55 | C[C@@H]1C[C@H]2[C@@H]3CCC4=CC(=O)C=C[C@]4(C)[C@@]3(F)[C@@H](O)C[C@]2(C)[C@@]1(O)C(=O)CO [DEXAMETHASONE] | – | – | – | – | – |
| 5.24 | CC(=O)C[C@@H]1CCC(C)(C)C/C1=C/[C@H]1CC(=O)OC(C)(C)[C@H]1OC(=O)c1ccccc1 | Non-Toxic | Dose-Dependent Effect | Dose-Dependent Effect | Dose-Dependent Effect | Dose-Dependent Effect |
